Results as given in PubChem BioAssay (NCI).
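Abbreviation: GI50, concentration required for 50% inhibition of growth. TGI: total growth inhibition.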

What was measured:
Assay in all cases: NCI tumour cell line growth inhibition, 384-well format
786-0 renal = system: 786-0 renal
A498 renal = system: A498 renal
A549 NSCLC = system: A549 NSCLC
ACHN renal = system: ACHN renal
BT-549 breast = system: BT-549 breast
CAKI-1 renal = system: CAKI-1 renal
COLO 205 colon = system: COLO 205 colon
DU-145 prostate = system: DU-145 prostate
EKVX NSCLC = system: EKVX NSCLC
HCT-116 colon = system: HCT-116 colon
HCT-15 colon = system: HCT-15 colon
HL-60(TB) leukemia = system: HL-60(TB) leukemia
HOP-62 NSCLC = system: HOP-62 NSCLC
HOP-92 NSCLC = system: HOP-92 NSCLC
HS 578T breast = system: HS 578T breast
HT29 colon = system: HT29 colon
IGROV1 ovarian = system: IGROV1 ovarian
K-562 leukemia = system: K-562 leukemia
KM12 colon = system: KM12 colon
M14 melanoma = system: M14 melanoma
MALME-3M melanoma = system: MALME-3M melanoma
MCF7 breast = system: MCF7 breast
MDA-MB-231 breast = system: MDA-MB-231 breast
MDA-MB-435 melanoma = system: MDA-MB-435 melanoma
MDA-MB-468 breast = system: MDA-MB-468 breast
MOLT-4 leukemia = system: MOLT-4 leukemia
NCI-H226 lung = system: NCI-H226 lung
NCI-H23 lung = system: NCI-H23 lung
NCI-H322M lung = system: NCI-H322M lung
NCI-H460 NSCLC = system: NCI-H460 NSCLC
NCI-H522 lung = system: NCI-H522 lung
OVCAR-3 ovarian = system: OVCAR-3 ovarian
OVCAR-4 ovarian = system: OVCAR-4 ovarian
OVCAR-5 ovarian = system: OVCAR-5 ovarian
OVCAR-8 ovarian = system: OVCAR-8 ovarian
PC-3 prostate = system: PC-3 prostate
RXF 393 renal = system: RXF 393 renal
SF-268 CNS = system: SF-268 CNS
SF-295 CNS = system: SF-295 CNS
SF-539 CNS = system: SF-539 CNS
SK-MEL-2 melanoma = system: SK-MEL-2 melanoma
SK-MEL-28 melanoma = system: SK-MEL-28 melanoma
SK-MEL-5 melanoma = system: SK-MEL-5 melanoma
SK-OV-3 ovarian = system: SK-OV-3 ovarian
SN12C renal = system: SN12C renal
SNB-19 CNS = system: SNB-19 CNS
SNB-75 CNS = system: SNB-75 CNS
SR leukemia = system: SR leukemia
SW-620 colon = system: SW-620 colon
T-47D breast = system: T-47D breast
TK-10 renal = system: TK-10 renal
U251 glioblastoma = system: U251 glioblastoma
UACC-257 melanoma = system: UACC-257 melanoma
UACC-62 melanoma = system: UACC-62 melanoma
UO-31 renal = system: UO-31 renal

Cc1ccc(C(=O)Nc2cccc(C(F)(F)F)c2)cc1Nc1nc(-c2cccnc2)nc2c1cnn2C
GI50 ([…]-0 renal): 1120 nM
TGI (786-0 renal): 2410 nM
GI50 (A498 renal): 1210 nM
TGI (A498 renal): 2950 nM
GI50 (A549 NSCLC): 1380 nM
TGI (A549 NSCLC): 2960 nM
GI50 (ACHN renal): 1030 nM
TGI (ACHN renal): 2510 nM
GI50 (BT-549 breast): 1670 nM
TGI (BT-549 breast): 3660 nM
GI50 (CAKI-1 renal): 972 nM
TGI (CAKI-1 renal): 2150 nM
GI50 (COLO 205 colon): 522 nM
TGI (COLO 205 colon): 2220 nM
GI50 (DU-145 prostate): 1710 nM
TGI (DU-145 prostate): 4340 nM
GI50 (EKVX NSCLC): 1150 nM
TGI (EKVX NSCLC): 3080 nM
GI50 (HCT-116 colon): 372 nM
TGI (HCT-116 colon): 1880 nM
GI50 (HCT-15 colon): 882 nM
TGI (HCT-15 colon): 2160 nM
GI50 (HL-60(TB) leukemia): 80.6 nM
TGI (HL-60(TB) leukemia): 1280 nM
GI50 (HOP-62 NSCLC): 1410 nM
TGI (HOP-62 NSCLC): 3270 nM
GI50 (HOP-92 NSCLC): 1580 nM
TGI (HOP-92 NSCLC): 5850 nM
GI50 (HS 578T breast): 1060 nM
TGI (HS 578T breast): 2310 nM
GI50 (HT29 colon): 341 nM
TGI (HT29 colon): 1330 nM
GI50 (IGROV1 ovarian): 782 nM
TGI (IGROV1 ovarian): 2600 nM
GI50 (K-562 leukemia): 12.2 nM
TGI (K-562 leukemia): 29 nM
GI50 (KM12 colon): 1490 nM
TGI (KM12 colon): 2980 nM
GI50 (M14 melanoma): 291 nM
TGI (M14 melanoma): 1410 nM
GI50 (MALME-3M melanoma): 222 nM
TGI (MALME-3M melanoma): 757 nM
GI50 (MCF7 breast): 1310 nM
TGI (MCF7 breast): 2620 nM
GI50 (MDA-MB-231 breast): 181 nM
TGI (MDA-MB-231 breast): 3870 nM
GI50 (MDA-MB-435 melanoma): 487 nM
TGI (MDA-MB-435 melanoma): 2390 nM
GI50 (MDA-MB-468 breast): 1080 nM
TGI (MDA-MB-468 breast): 2310 nM
GI50 (MOLT-4 leukemia): 593 nM
TGI (MOLT-4 leukemia): 1890 nM
GI50 (NCI-H226 lung): 774 nM
TGI (NCI-H226 lung): 2120 nM
GI50 (NCI-H23 lung): 248 nM
TGI (NCI-H23 lung): 1900 nM
GI50 (NCI-H322M lung): 2060 nM
TGI (NCI-H322M lung): 4890 nM
GI50 (NCI-H460 NSCLC): 383 nM
TGI (NCI-H460 NSCLC): 1750 nM
GI50 (NCI-H522 lung): 1380 nM
TGI (NCI-H522 lung): 2720 nM
GI50 (OVCAR-3 ovarian): 1490 nM
TGI (OVCAR-3 ovarian): 3210 nM
GI50 (OVCAR-4 ovarian): 1590 nM
TGI (OVCAR-4 ovarian): 4050 nM
GI50 (OVCAR-5 ovarian): 1410 nM
TGI (OVCAR-5 ovarian): 8450 nM
GI50 (OVCAR-8 ovarian): 1880 nM
TGI (OVCAR-8 ovarian): 4790 nM
GI50 (PC-3 prostate): 1820 nM
TGI (PC-3 prostate): 4550 nM
GI50 (RXF 393 renal): 137 nM
TGI (RXF 393 renal): 1110 nM
GI50 (SF-268 CNS): 1700 nM
TGI (SF-268 CNS): 4210 nM
GI50 (SF-295 CNS): 1720 nM
TGI (SF-295 CNS): 3150 nM
GI50 (SF-539 CNS): 677 nM
TGI (SF-539 CNS): 2060 nM
GI50 (SK-MEL-2 melanoma): 240 nM
TGI (SK-MEL-2 melanoma): 959 nM
GI50 (SK-MEL-28 melanoma): 319 nM
TGI (SK-MEL-28 melanoma): 1840 nM
GI50 (SK-MEL-5 melanoma): 466 nM
TGI (SK-MEL-5 melanoma): 1820 nM
GI50 (SK-OV-3 ovarian): 1880 nM
TGI (SK-OV-3 ovarian): 3940 nM
GI50 (SN12C renal): 2150 nM
TGI (SN12C renal): 10300 nM
GI50 (SNB-19 CNS): 3540 nM
TGI (SNB-19 CNS): 13300 nM
GI50 (SNB-75 CNS): 1960 nM
TGI (SNB-75 CNS): 4280 nM
GI50 (SR leukemia): 390 nM
TGI (SR leukemia): 1320 nM
GI50 (SW-620 colon): 955 nM
TGI (SW-620 colon): 2260 nM
GI50 (T-47D breast): 1290 nM
TGI (T-47D breast): 2700 nM
GI50 (TK-10 renal): 1370 nM
TGI (TK-10 renal): 3130 nM
GI50 (U251 glioblastoma): 1630 nM
TGI (U251 glioblastoma): 3240 nM
GI50 (UACC-257 melanoma): 378 nM
TGI (UACC-257 melanoma): 1890 nM
GI50 (UACC-62 melanoma): 309 nM
TGI (UACC-62 melanoma): 1510 nM
GI50 (UO-31 renal): 605 nM
TGI (UO-31 renal): 2090 nM
